In PubChem BioAssay AID1963426 (Molecular Pharmacology Branch, DTP, NCI, 2024):
Where “and” joins values, the source holds several entries; their conditions need not be identical. Identical values can stand only once.

System: 186277-243-T-J2-PDC complex spheroid growth, % test/control
Assay: Anticancer human tumor 186277-243-T-J2-PDC patient-derived colon adenocarcinoma cell line growth inhibition [Asc]
Conditions: for viability, T/C: stronger effect = lower value
Outline: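 Tumor cells were grown as complex spheroids with human endothelial cells (HUVEC) and human mesenchymal stem cells as stroma. Agents were tested alone and in combination, in half-log steps down from the clinical Cmax, or from 10 microM where Cmax was unknown.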
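Further: spheroids exposed to agents for 7 days.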
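Wherever viability, T/C is given: 100% = DMSO vehicle control wells.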

O=C(c1cc(Cc2n[nH]c(=O)c3ccccc23)ccc1F)N1CCN(C(=O)C2CC2)CC1 + CCN1C(C(=O)NC23CCC(C(=O)O)(CC2)CC3)C(c2cccc(Cl)c2F)C2(C(=O)Nc3cc(Cl)ccc32)C12CCCCC2
IC50 (curve of first compound, second compound 0.03 µM): > 10000 nM
IC50 (curve of first compound, second compound 0.0949 µM): > 10000 nM
IC50 (curve of first compound, second compound 0.3 µM): > 10000 nM
IC50 (curve of first compound, second compound 0.949 µM): 596 nM
IC50 (curve of first compound, second compound 3 µM): < 31.6 nM
viability, T/C (second compound 0.03 µM, first compound 0.0316 µM): 120%
viability, T/C (second compound 0.03 µM, first compound 0.1 µM): 135%
viability, T/C (second compound 0.03 µM, first compound 0.316 µM): 102%
viability, T/C (second compound 0.03 µM, first compound 1 µM): 99%
viability, T/C (second compound 0.03 µM, first compound 3.16 µM): 94.2%
viability, T/C (second compound 0.03 µM, first compound 10 µM): 82.4%
viability, T/C (second compound 0.0949 µM, first compound 0.0316 µM): 90%
viability, T/C (second compound 0.0949 µM, first compound 0.1 µM): 95.1%
viability, T/C (second compound 0.0949 µM, first compound 0.316 µM): 93.9%
viability, T/C (second compound 0.0949 µM, first compound 1 µM): 85.6%
viability, T/C (second compound 0.0949 µM, first compound 3.16 µM): 91.6%
viability, T/C (second compound 0.0949 µM, first compound 10 µM): 79.4%
viability, T/C (second compound 0.3 µM, first compound 0.0316 µM): 77.8%
viability, T/C (second compound 0.3 µM, first compound 0.1 µM): 90.8%
viability, T/C (second compound 0.3 µM, first compound 0.316 µM): 72.1%
viability, T/C (second compound 0.3 µM, first compound 1 µM): 67.2%
viability, T/C (second compound 0.3 µM, first compound 3.16 µM): 62.1%
viability, T/C (second compound 0.3 µM, first compound 10 µM): 60.8%
viability, T/C (second compound 0.949 µM, first compound 0.0316 µM): 54.3%
viability, T/C (second compound 0.949 µM, first compound 0.1 µM): 51.7%
viability, T/C (second compound 0.949 µM, first compound 0.316 µM): 54.6%
viability, T/C (second compound 0.949 µM, first compound 1 µM): 45.7%
viability, T/C (second compound 0.949 µM, first compound 3.16 µM): 47%
viability, T/C (second compound 0.949 µM, first compound 10 µM): 40.9%
viability, T/C (second compound 3 µM, first compound 0.0316 µM): 31.8%
viability, T/C (second compound 3 µM, first compound 0.1 µM): 33.5%
viability, T/C (second compound 3 µM, first compound 0.316 µM): 29.9%
viability, T/C (second compound 3 µM, first compound 1 µM): 32.4%
viability, T/C (second compound 3 µM, first compound 3.16 µM): 30.2%
viability, T/C (second compound 3 µM, first compound 10 µM): 26.5%

Cc1nc(N2CCC3(CC2)COC(C)C3N)c(CO)nc1Sc1ccnc(N)c1Cl (configuration not stated)
viability, T/C (compound 0.00949 µM): 92.7% and 111% and 93.3%
viability, T/C (compound 0.03 µM): 89.2% and 95.6% and 104%
viability, T/C (compound 0.0949 µM): 81% and 91.5% and 95.9%
viability, T/C (compound 0.3 µM): 102% and 103% and 96.9%
viability, T/C (compound 0.949 µM): 102% and 114% and 95%
viability, T/C (compound 3 µM): 109% (2×) and 93.4%
IC50 (curve of compound): > 3000 nM

O=C(c1ccc(F)c(F)c1Nc1ccc(I)cc1F)N1CC(O)([C@@H]2CCCCN2)C1 + CNC(C)C(=O)NC1CN(S(=O)(=O)c2cccc(S(=O)(=O)N3CCC4CCC(C(=O)NC(c5ccccc5)c5ccccc5)N4C(=O)C(NC(=O)C(C)NC)C3)c2)CCC2CCC(C(=O)NC(c3ccccc3)c3ccccc3)N2C1=O
IC50 (curve of first compound, second compound 0.01 µM): 178 nM
IC50 (curve of first compound, second compound 0.0316 µM): 176 nM
IC50 (curve of first compound, second compound 0.1 µM): 134 nM
IC50 (curve of first compound, second compound 0.316 µM): 126 nM
IC50 (curve of first compound, second compound 1 µM): 85.4 nM
viability, T/C (second compound 0.01 µM, first compound 0.00316 µM): 90.3%
viability, T/C (second compound 0.01 µM, first compound 0.01 µM): 89.6%
viability, T/C (second compound 0.01 µM, first compound 0.0316 µM): 106%
viability, T/C (second compound 0.01 µM, first compound 0.1 µM): 78.4%
viability, T/C (second compound 0.01 µM, first compound 0.316 µM): 21.6%
viability, T/C (second compound 0.01 µM, first compound 1 µM): 11.9%
viability, T/C (second compound 0.0316 µM, first compound 0.00316 µM): 110%
viability, T/C (second compound 0.0316 µM, first compound 0.01 µM): 95.9%
viability, T/C (second compound 0.0316 µM, first compound 0.0316 µM): 115%
viability, T/C (second compound 0.0316 µM, first compound 0.1 µM): 82.2%
viability, T/C (second compound 0.0316 µM, first compound 0.316 µM): 17%
viability, T/C (second compound 0.0316 µM, first compound 1 µM): 10.4%
viability, T/C (second compound 0.1 µM, first compound 0.00316 µM): 107%
viability, T/C (second compound 0.1 µM, first compound 0.01 µM): 104%
viability, T/C (second compound 0.1 µM, first compound 0.0316 µM): 98.8%
viability, T/C (second compound 0.1 µM, first compound 0.1 µM): 61.7%
viability, T/C (second compound 0.1 µM, first compound 0.316 µM): 15.8%
viability, T/C (second compound 0.1 µM, first compound 1 µM): 9.21%
viability, T/C (second compound 0.316 µM, first compound 0.00316 µM): 112%
viability, T/C (second compound 0.316 µM, first compound 0.01 µM): 112%
viability, T/C (second compound 0.316 µM, first compound 0.0316 µM): 108%
viability, T/C (second compound 0.316 µM, first compound 0.1 µM): 59.4%
viability, T/C (second compound 0.316 µM, first compound 0.316 µM): 12.6%
viability, T/C (second compound 0.316 µM, first compound 1 µM): 7.61%
viability, T/C (second compound 1 µM, first compound 0.00316 µM): 106%
viability, T/C (second compound 1 µM, first compound 0.01 µM): 119%
viability, T/C (second compound 1 µM, first compound 0.0316 µM): 105%
viability, T/C (second compound 1 µM, first compound 0.1 µM): 41.2%
viability, T/C (second compound 1 µM, first compound 0.316 µM): 8.18%
viability, T/C (second compound 1 µM, first compound 1 µM): 7.39%
